From PubChem BioAssay AID1996
Converted amounts (≈) assume the structure as drawn.

settings: buffer; pH 7.4; 200.0 µM

Structure (SMILES)	solubility kinetic [µg/mL]
CCOC(=O)Cn1c(=O)oc2ccc(C)cc21	> 35.3
COCCNc1nc(N)c([N+](=O)[O-])c(NCc2ccccc2)n1	4.9 (≈ 15.4 µM)
Cc1cc(O)c(Sc2ccc(Cl)cc2)c(=O)[nH]1	> 40.2
CCC(=O)OC1(c2ccccc2)C(C)CN(C)CC1C.Cl (stereo not given)	> 46.8
O=C(C(=O)N1CCCC1)c1c(-c2ccccc2)[nH]c2ccccc12	> 47.8
C[C@H](C(=O)NCc1ccccc1)C(=O)c1ccccc1	> 40.1
Cc1cc(C)c(C#N)c(SCC(=O)C2CC2)n1	3.6 (≈ 14.6 µM)
O=C(COC(=O)[C@H](Cc1ccccc1)NC(=O)c1ccco1)Nc1ccccc1OC(F)F	64 (≈ 140 µM)
O=c1[nH]c2ccc(S(=O)(=O)Nc3ccc(Cl)cc3)cc2o1	> 48.7
O=C(NC(=S)NC(CO)Cc1ccccc1)c1ccc(F)cc1 (stereo not given)	4.9 (≈ 14.7 µM)
CCc1nc(N)nc(N)c1-c1ccc(Cl)cc1	> 37.3
Cc1ccc(NC(=O)c2ccco2)c(NC(=O)COc2ccccc2)c1	5.3 (≈ 15.1 µM)
COP(=O)(OC)C(Nc1ccc([N+](=O)[O-])cc1)c1ccccc1 (stereo not given)	> 50.4
O=C(CSc1ncccc1C(=O)O)NC1CCCCC1	39.8 (≈ 135 µM)
CCOc1ccccc1C(=O)NCC(=O)N1CCC(C)CC1	> 45.7
O=C(COC(=O)c1c(F)cccc1F)Nc1ccc(N2CCCCC2)cc1	5.2 (≈ 13.9 µM)
CCCn1c(SCC(=O)NC)nc2sc3c(c2c1=O)CCC3	5.5 (≈ 16.3 µM)
CSc1ccccc1C(=O)NCc1cccnc1	> 38.8
Oc1ccc(NC(=S)Nc2ccc(F)cc2)cc1	33.2 (≈ 127 µM)
CNS(=O)(=O)c1cc(N)ccc1C	26.2 (≈ 131 µM)

Structure (SMILES)	solubility kinetic [µg/mL]
CCC(C(=O)OC)n1cnc2scc(-c3ccc(C)cc3)c2c1=O (stereo not given)	29.3 (≈ 85.6 µM)
COC(=O)C(C)Oc1ccc(Cl)c(CN2OCC(C)(C)C2=O)c1 (stereo not given)	> 51.3
O=C1CN(C(=O)CSc2nncs2)c2ccccc2N1	> 46
COc1ccc(CNc2ncnc3cc(OC)c(OC)cc23)cc1OC	> 53.3
O=C(C1CCCO1)N(c1ccc(F)cc1)C1C=CS(=O)(=O)C1 (stereo not given)	> 48.8
CCC1C(C#N)=C(N)Oc2c1c(=O)oc1ccccc21 (stereo not given)	8.6 (≈ 32.1 µM)
CCc1ccccc1NC(=O)c1cc(C)no1	> 34.5
COc1cccc(-c2noc(CCC(=O)NCC3CCCO3)n2)c1 (stereo not given)	> 49.7
CN1CCC(N(C)S(=O)(=O)c2ccc(Cl)cc2)CC1	> 45.4
Cc1ccc(-c2cc(C(=O)NCC3CCCO3)c3ccccc3n2)cc1C (stereo not given)	4.7 (≈ 13 µM)
CC(=O)Nc1ccc(NC=C(C#N)C#N)cc1	4.2 (≈ 18.6 µM)
O=C1CCC/C1=C\Nc1ccc(Cl)c([N+](=O)[O-])c1	7.2 (≈ 27 µM)
C/C(Cl)=C/Cc1c(C)[nH]c2c(ccc3ccccc32)c1=O	< 0.6
Cc1occc1C(=O)N1CCCC(Nc2ccc(F)cc2)C1 (stereo not given)	> 45.4
CC(=C\c1ccccc1)/C=C1/SC(=S)N(CCC(=O)O)C1=O	34.7 (≈ 104 µM)
CCOC(=O)c1sc(=S)n(C)c1NC(=O)c1ccc(OC)cc1	9.1 (≈ 25.8 µM)
CCOC(=O)/C(C#N)=C/Nc1ccsc1C(=O)OC	< 0.3
Cl.c1ccc(-c2ccc(CNC3CC3)cc2)cc1	37.9
CC1=CC(=C(C#N)C#N)c2ccccc2N1C	2.7 (≈ 12.2 µM)
Nc1nc(Nc2ccccc2)sc1C(=O)c1ccccc1	4.3 (≈ 14.6 µM)

Structure (SMILES)	solubility kinetic [µg/mL]
CCOCCCNC(c1ccccc1)c1ccncc1 (stereo not given)	38 (≈ 141 µM)
CC1CC(C)CN(C(=O)CNC(=O)c2ccc3ccccc3c2)C1 (stereo not given)	> 48.7
O=C(NC(CO)C(=O)OCc1ccccc1)OCc1ccccc1 (stereo not given)	> 49.4
CN1C(=O)Nc2cccc3cccc1c23	10.1 (≈ 51 µM)
O=C(NCC1CCCO1)c1cccc(S(=O)(=O)Nc2cccc(C(F)(F)F)c2)c1 (stereo not given)	2.1 (≈ 4.9 µM)
CCN(c1ccccc1)S(=O)(=O)c1csc(C(N)=O)c1	44.3 (≈ 143 µM)
COc1cc2c(cc1OC)CN(C(=O)CSc1ccccc1C)CC2	> 53.6
Cc1cc(=O)c2cc(NC(=O)c3ccccc3Cl)ccc2[nH]1	9.4 (≈ 30.1 µM)
O=C(NCc1cccc(F)c1F)C1CCC(=O)N(C2CC2)C1 (stereo not given)	38.1 (≈ 124 µM)
O=C(OCCC1Oc2cccnc2NC1=O)c1ccc(F)cc1 (stereo not given)	4.8 (≈ 15.2 µM)
CC(C(=O)Nc1cccc([N+](=O)[O-])c1)N1C(=O)NC2(CCCC2)C1=O (stereo not given)	> 52
Cc1onc(-c2c(Cl)cccc2Cl)c1C(=O)N(C)Cc1ccccc1	40.9 (≈ 109 µM)
COc1ccc(C(=O)COC(=O)/C=C/c2ccccc2[N+](=O)[O-])cc1	10.2 (≈ 29.9 µM)
CCOC(=O)c1sc(N)c(C#N)c1COC(=O)C1=COCCO1	11.6 (≈ 34.3 µM)
COc1ccc(NC(=O)/C=C/c2cccc(Br)c2)cn1	3.8 (≈ 11.4 µM)
O=C(CN1C(=O)c2cccc([N+](=O)[O-])c2C1=O)NNC(=O)c1ccc(F)cc1	> 57.9
Cc1ccc(SCC(=O)OCC(=O)Nc2ccc3[nH]c(=O)[nH]c3c2)cc1C	5.8 (≈ 15 µM)
CCOC(=O)Cc1c(C)nc(Cc2ccc(OC(C)C)cc2)[nH]c1=O	> 51.7
Cc1cccc(-c2nc(Nc3ccc(O)cc3)c3ccccc3n2)c1	5.8 (≈ 17.7 µM)
CC1CCCCC1NC(=O)COC(=O)COc1ccccc1Cl (stereo not given)	17.8 (≈ 52.4 µM)
